{
  "source": "patent US20050084505A1",
  "about": "“Utilization of ubiquinones for influencing the effect of histamine” (priority 2002, published 2005)",
  "key": {"[1]": {"tested_on": "Isolated, perfused and ventilated lungs from adult rats", "experiment": "Isolated, perfused and ventilated rat lung, histamine-induced constriction", "method": "Isolated, perfused and ventilated lungs from adult rats (280 to 330 g body weight) were injected with 50 pg of histamine per lung. After 2 to […], this caused constriction of the bronchial and pulmonary vessels with reduction of the lung extensibility."}, "[2]": {"tested_on": "prepared lung tissue and trachea pieces of guinea pigs", "conditions": "tissue not aerated, cited from earlier work"}, "[3]": {"conditions": "upon the action of γ-globulin on lung tissue"}},
  "data": [
    {"smiles": "COC1=C(OC)C(=O)C(C/C=C(\\C)CC/C=C(\\C)CC/C=C(\\C)CC/C=C(\\C)CC/C=C(\\C)CC/C=C(\\C)CC/C=C(\\C)CC/C=C(\\C)CC/C=C(\\C)CCC=C(C)C)=C(C)C1=O", "note": "[CoQ-10, 2,3-dimethoxy-5-methyl-6-decaprenyl-1,4-benzoquinone]", "values": [
      {"measurement": "spontaneous vasoconstriction of the lung vessels", "setting": "[1]; 2.7 ppm in the perfusate, compared with control perfusion (even below)", "result": "decreased"},
      {"measurement": "delayed histamine reaction (constriction of the bronchial and pulmonary vessels with reduction of the lung extensibility)", "setting": "[1]; previous addition of 2.7 ppm in the perfusate, 50 pg of histamine per lung, reaction after 2 to 3 hours", "result": "completely prevented"},
      {"measurement": "contraction of lung tissue by added histamine", "setting": "[2]; continuously administered", "result": "increased"},
      {"measurement": "secretion of SRS-A", "setting": "[2]; [3]", "result": "reduced"},
      {"measurement": "secretion of histamines", "setting": "[2]; [3]", "result": "reduced"}
    ]}
  ]
}
